For the assay, the target named is T1, IRAK3-ePL (Homo sapiens, UniProt Q9Y616).
T1 construct: expressed in transfected cells; host or cells: 293T CRBN OE/GSPT1 G575N KI cells, lentiviral transduction, puromycin selected
The assay is described as follows: IRAK3-ePL overexpressing degradation assay (InCELL Hunter luminescence, dose response). Type of assay: cell-based. The note with it: for IRAK3 ePL degradation Ymin: lowest percentage of target protein remaining following compound treatment; for DC50: read-out: IRAK3 ePL degradation EC50. The procedure, abridged:
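Lenti-X 293T CRBN/GSPT1 G575N cells stably expressing IRAK3-ePL (5,000/well) treated overnight at 37° C with 10-point 3-fold dilutions from 10 μM, 0.2% DMSO. InCELL Hunter luminescence, background subtracted using Ataluren wells and normalized to DMSO; EC50 from four-parameter logistic fit.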

As to `O=C1CCC(c2ccc(N3CCN(CCN4CCC(n5cc(Nc6ncc(-c7cccc(F)c7)n7ccnc67)cn5)CC4)CC3)cc2)C(=O)N1` (stereo not drawn) [Compound 80, 3-(4-(4-(2-(4-(4-((5-(3-fluorophenyl)imidazo [1,2-a]pyrazin-8-yl)amino)-1H-pyrazol-1-yl)piperidin-1-yl)ethyl)piperazin-1-yl)phenyl) piperidine-2,6-dione], the “IRAK3 ePL degradation Ymin” value worked out at 28% and the DC50 came to 26 nM.

`Cc1cc(-c2cnc(Nc3cnn([C@H]4CC[C@H](CCN5CCN(c6ccc([C@]7(C)CCC(=O)NC7=O)cc6)CC5)CC4)c3)c3nccn23)c(F)cc1F` [Compound 82, (S)-3-(4-(4-(2-((trans)-4-(4-((5-(2,4-difluoro-5-methylphenyl)imidazo[1,2-a]pyrazin-8-yl)amino)-1H-pyrazol-1-yl)cyclohexyl)ethyl)piperazin-1-yl)phenyl)-3-methylpiperidine-2,6-dione]: the “IRAK3 ePL degradation Ymin” value was 66%.

Consider `Cc1cc(-c2cnc(Nc3cnn(C4CCN(CC(=O)N5CCN(c6ccc(C7CCC(=O)NC7=O)cc6)CC5)CC4)c3)c3nccn23)c(F)cc1F` (stereo not drawn) [Compound 17, 3-(4-(4-(2-(4-(4-((5-(2,4-difluoro-5-methylphenyl)imidazo[1,2-a]pyrazin-8-yl)amino)-1H-pyrazol-1-yl)piperidin-1-yl)acetyl)piperazin-1-yl)phenyl)piperidine-2,6-dione], for which the “IRAK3 ePL degradation Ymin” value is listed as 14% and the DC50 was 0.51 nM.

As to `Cc1cccc(-c2cnc(Nc3cnn(C4CCN(CC(=O)N5CCN(c6ccc7c(c6)C(=O)N(C6CCC(=O)NC6=O)C7)CC5)CC4)c3)c3nccn23)c1` (stereo not drawn) [Compound 16, 3-(1-oxo-6-(4-(2-(4-(4-((5-(m-tolyl)imidazo[1,2-a]pyrazin-8-yl)amino)-1H-pyrazol-1-yl)piperidin-1-yl)acetyl)piperazin-1-yl)isoindolin-2-yl)piperidine-2,6-dione], the “IRAK3 ePL degradation Ymin” value is on record as 33% and the DC50 was 21 nM.

With `O=C1CCC(c2ccc(N3CCN(CCN4CCC(n5cc(Nc6ncc(-c7ccccc7F)n7ccnc67)cn5)CC4)CC3)cc2)C(=O)N1` (stereo not drawn) [Compound 75, 3-(4-(4-(2-(4-(4-((5-(2-fluorophenyl)imidazo [1,2-a]pyrazin-8-yl)amino)-1H-pyrazol-1-yl)piperidin-1-yl)ethyl)piperazin-1-yl)phenyl) piperidine-2,6-dione], the “IRAK3 ePL degradation Ymin” value came out at 25% and the DC50 was found to be 4.1 nM.

`Cc1cc(-c2cnc(Nc3cnn(C4CCN(CCN5CCN(c6ccc(C7CCC(=O)NC7=O)cc6)C[C@@H]5C)CC4)c3)c3nccn23)c(F)cc1F` (stereo partly drawn) [Compound 7, 3-(4-((S)-4-(2-(4-(4-((5-(2,4-difluoro-5-methylphenyl)imdazo [1,2-a]pyrazin-8-yl)amino)-1H-pyrazol-1-yl)piperidin-1-yl)ethyl)-3-methylpiperazin-1-yl)phenyl) piperidine-2,6-dione]: the “IRAK3 ePL degradation Ymin” value is given as 14% and the DC50 came out at 0.6 nM.

Regarding `Cc1cccc(-c2cnc(Nc3cnn(C4CCN(CCN5CCN(c6ccc7c(c6)C(=O)N(C6CCC(=O)NC6=O)C7=O)CC5)CC4)c3)c3nccn23)c1` (stereo not drawn) [Compound 2, 2-(2,6-dioxopiperidin-3-yl)-5-(4-(2-(4-(4-((5-(m-tolyl)imidazo[1,2-a]pyrazin-8-yl)amino)-1H-pyrazol-1-yl)piperidin-1-yl)ethyl)piperazin-1-yl)isoindoline-1,3-dione], the “IRAK3 ePL degradation Ymin” value is reported as 15% and the DC50 was determined as 3 nM.

Turning to `O=C1CCC(c2ccc(N3CCN(CCN4CCC(n5cc(Nc6ncc(-c7ccc(F)cc7)n7ccnc67)cn5)CC4)CC3)cc2)C(=O)N1` (stereo not drawn) [Compound 74, 3-(4-(4-(2-(4-(4-((5-(4-fluorophenyl)imidazo [1,2-a]pyrazin-8-yl)amino)-1H-pyrazol-1-yl)piperidin-1-yl)ethyl)piperazin-1-yl)phenyl) piperidine-2,6-dione], the “IRAK3 ePL degradation Ymin” value is 26% and the DC50 was 1 nM.

For the origin of these results see US20260216347A1, “Substituted Imidazo-Based Compounds as Ligand Directed Degraders of IRAK3” (Celgene Corporation, priority 2022, published 2026).
